Data published in US20230277483A1, “COMPOSITIONS AND METHODS TO TREAT INFLAMMATION” (University of Iowa Research Foundation, priority 2022, published 2023).

Legend:
HGF = test: Anti-inflammatory miR expression after Pg-LPS challenge; type: cell-based, human; settings: 24 hours after Pg-LPS challenge
Experimental: (§1) FIGS. 11A-11B. Sg metabolites upregulate anti-inflammatory miRs in human macrophages and HGF. A-B: Relative transcript changes of miR-200c, 146a, and 21 in HGF (A) and human MDM (B) treated with AICAR, MA, HCA, and HPLA 24 hours after Pg-LPS challenge; performed in duplicate.

[1] = tested on: human monocyte-derived macrophages (MDM) using THP-1 cells; test: Proinflammatory cytokines after Pg-LPS challenge (qRT-PCR, ELISA); type: cell-based; settings: at 0.1 μg after Pg-LPS challenge
Experimental: (§2) Sg metabolites modulate proinflammatory cytokines in human periodontal associated cells in vitro. Sg were cultured in a total of 40 ml DMEM for 24 hrs. After 200 μl of Sg suspension reached 0.2 at OD600 value in a 96-well plate, the Sg metabolites were collected by centrifugation at 3000 g for 10 min and then filtered through a 0.22 μm filter. No toxicity of Sg metabolites was detected using an MTT assay on primary human bone marrow mesenchymal stromal cells (BMSCs) and primary human gingival fibroblasts (HGF) (data no shown). The modulation of Sg metabolites on inflammatory cytokines was tested using human monocyte-derived macrophages (MDM) and HGF. The MDM were generated by inducing a human macrophage cell line (THP-1) using PMA at 10 ng/ml. The MDM at 2×10^6 cells/per well and HGF at 2×10^4 cells/per well were cultured in 24-well plates using DMEM with 10% FBS and 1% PS. The Sg metabolites at 1 and 5% v/v were added and incubated for 24 hrs before challenging with Pg-LPS at 100 ng/ml.
(§3) Human monocyte-derived macrophages (MDM) using THP-1 cells and HGF were cultured in a 24-well plate with DMEM and challenged with Pg-LPS at 100 ng/ml.
(§4) In addition, freshly isolated epidydimal white adipose tissues (eWAT) from mice on a HFD for 16 weeks were minced and cultured in 24-well plates and treated with HCA at 0.5 and 1.0 μM in DMEM/F-12 containing 10% cosmic calf serum (CCS) and 1% penicillin-streptomycin (basal growth media, BGM). […] These preliminary data are strong evidence that Sg metabolites have the potential to modulate host inflammatory responses and attenuate inflammation.
HCA promotes proliferation of health related bacteria and inhibits proliferation and attachment of periodontopathogenic bacteria. Promoting the growth of health-related commensal bacteria while inhibiting proliferation and attachment of pathogenic bacteria may be effective at preventing or treating periodontal inflammation. To determine if HCA has an effect on the growth properties of commensal bacteria and periodontopathogens, HCA at different concentrations was added to aerobic culture of S. mitis and S. oralis and anaerobic culture of T. denticola as described in our published manuscript (see detail in Shu et al, Journal of Periodontology, 2022). FIGS. 18A-C summarize the functions of HCA on the proliferation of specific commensal and pathogenic bacteria. […] Furthermore, the function of HCA on P. gingivalis attachment, a key parameter of adhesion and biofilm formation by periodontopathogenic bacteria, was investigated. […] Attachment measurements of P. gingivalis were performed based on our published studies (see detail in Shu et al, Journal of Periodontology, 2022). […] To test the biocompatibility and anti-inflammatory properties of HCA, human monocyte-derived macrophages (MDM) and gingival fibroblasts (HGF) were prepared as described in our previous studies. The cells were then treated with HCA from 0.1 to 50 μM. No toxicity was observed after treatment with different concentrations of HCA in either cell type using an MTT assay (FIGS. 19A and B, left column). The anti-inflammatory function of HCA on MDM and HGF after exposure to P. gingivalis lipopolysaccharide (PG-LPS) was investigated. […] HCA mitigates inflammation and affects the composition of microbiomes in vivo. Recent studies investigated whether HCA modulates periodontal inflammation using a mouse model. To induce periodontal inflammation, a total of 1 μl Pg-LPS at 10 μg/μl was directly injected twice a week into the interdental region between maxillary molars of C57BL/6J mice using a Hamilton1700 series syringe according to our previously published studies. 100 μl of HCA at 0.5 μM was administrated I.P. three time a week. […] It was also tested whether HCA affects the composition of the microbiome in vivo. For this purpose, high fat diet-induced obese (DIO) mice (The Jackson Laboratory) received I.P, administration of 100 μl of HCA at 0.2 and 0.5 μM three times a week for 3 weeks. […]

Human MDM = test: Anti-inflammatory miR expression after Pg-LPS challenge; type: cell-based; settings: 24 hours after Pg-LPS challenge
Experimental: as §1
Human MDM was cultured in a 24-well plate and treated with HCA at different concentrations and Pg-LPS at 100 ng/mi for 24 hrs. […] (All data are presented as means±SEM. *: p<0.05 vs untreated, ANOVA).

[2] = tested on: human gingival fibroblasts (HGF); test: Proinflammatory cytokines after Pg-LPS challenge (qRT-PCR, ELISA, antibody array); type: cell-based; settings: for proinflammatory cytokines (transcripts of IL-1β, 6 and 8): at 0.1 μg after Pg-LPS challenge
Experimental: as §2
(§5) L-Norleucine as well as other metabolites modulate proinflammatory cytokines in macrophages and HGF. L-Norleucine was obtained commercially (Sigma) and dissolved in DMEM. Mouse macrophages and human HGF were cultured with DMEM supplemented with different concentrations of L-Norleucine and subsequently challenged with Pg-LPS at 100 ng/ml.
as §3, §4
HCA promotes proliferation of health related bacteria and inhibits proliferation and attachment of periodontopathogenic bacteria. Promoting the growth of health-related commensal bacteria while inhibiting proliferation and attachment of pathogenic bacteria may be effective at preventing or treating periodontal inflammation. To determine if HCA has an effect on the growth properties of commensal bacteria and periodontopathogens, HCA at different concentrations was added to aerobic culture of S. mitis and S. oralis and anaerobic culture of T. denticola as described in our published manuscript (see detail in Shu et al, Journal of Periodontology, 2022). FIGS. 18A-C summarize the functions of HCA on the proliferation of specific commensal and pathogenic bacteria. […] Furthermore, the function of HCA on P. gingivalis attachment, a key parameter of adhesion and biofilm formation by periodontopathogenic bacteria, was investigated. […] Attachment measurements of P. gingivalis were performed based on our published studies (see detail in Shu et al, Journal of Periodontology, 2022). […] To test the biocompatibility and anti-inflammatory properties of HCA, human monocyte-derived macrophages (MDM) and gingival fibroblasts (HGF) were prepared as described in our previous studies. The cells were then treated with HCA from 0.1 to 50 μM. No toxicity was observed after treatment with different concentrations of HCA in either cell type using an MTT assay (FIGS. 19A and B, left column). The anti-inflammatory function of HCA on MDM and HGF after exposure to P. gingivalis lipopolysaccharide (PG-LPS) was investigated. […] HCA mitigates inflammation and affects the composition of microbiomes in vivo. Recent studies investigated whether HCA modulates periodontal inflammation using a mouse model. To induce periodontal inflammation, a total of 1 μl Pg-LPS at 10 μg/μl was directly injected twice a week into the interdental region between maxillary molars of C57BL/6J mice using a Hamilton1700 series syringe according to our previously published studies. […]

Mouse macrophages = test: Proinflammatory cytokine transcripts after Pg-LPS challenge; type: cell-based
Experimental: as §5

[3] = L-Norleucine at 1 and 5 μM, Pg-LPS at 100 ng/ml

Row | SMILES | anti-inflammatory miRs (miR-200c, 146a, and 21) (HGF) | proinflammatory cytokines (IL-6 transcript and IL-6 protein in supernatants) [1] | anti-inflammatory miRs (miR-200c, 146a, and 21) (Human MDM) | proinflammatory cytokines (transcripts of IL-1β, 6 and 8) [2] | IL-6 and IL-8 in macrophages (Mouse macrophages; L-Norleucine) | transcripts of IL-1β, 6, and 8 (Mouse macrophages; [3]) | transcripts of IL-1β, 6, and 8 [2, 3]
1 | NC(=O)c1ncn([C@@H]2O[C@H](CO)[C@@H](O)[C@H]2O)c1N [AICAR, acadesine] | upregulate | modulate | upregulate | modulate |  |  | 
2 | O=C(O)C(O)Cc1ccc(O)cc1 (stereo not drawn) [HPLA, 4-hydroxyphenyllactic acid] | upregulate | modulate | upregulate | modulate |  |  | 
3 | CCCC[C@H](N)C(=O)O [L-Norleucine] |  |  |  |  | effectively downregulated | effectively downregulated | effectively downregulated
4 | O=C(O)CC(O)C(=O)O (stereo not drawn) [MA, malic acid] | upregulate | modulate | upregulate | modulate |  |  | 
